The values that follow come from US9889135B2, “Companion diagnostic for CDK4 inhibitors” (Memorial Sloan-Kettering Cancer Center, priority 2013, dated 2018).

Peptide text beside a SMILES is read from it. * marks the point of attachment. Cbz = O=C(OCc1ccccc1)*

The test system of experiment [1] is MDM2 in LS8817 and LS141 cells. Kind of experiment: MDM2 level after proteasome inhibition in PD0332991 treated cells. The class given is cell-based, human. The note with it: 10 μM MG132 added to cells treated with PD0332991 for two days.
The test system of another experiment is LS8817 cells. Kind of experiment: doxorubicin effect on LS8817 cells. It counts as cell-based, human.
The subject of a further experiment is WD/DDLS cell lines. The experiment can be described thus: annexin V staining (apoptosis). It counts as cell-based, human. The note with it: nutlin-3a, forty-eight hours; LS8817, LS0082, LS8107 and LS7785-1. The protocol: FIG. 1A-C. […] Mean percentage of BrdU incorporation or annexin V+/7-AAD− cells was calculated from three or more independent experiments. Error bars represent standard deviation (*p<0.05).
FIG. 13A-B. Nutlin-3a induces apoptosis in all the liposarcoma cell lines. The indicated cell lines were treated with nutlin-3a or vehicle control and extracts were prepared for immunoblotting (A) or annexin V staining (B) forty-eight hours after treatment. Mean percentage of annexin V+/7-AAD− cells was calculated from three or more independent experiments. Error bars represent standard deviation (*p<0.05).
Cells were stained with BrdU (20 μM for two hours) or annexin V as previously described (22, 48). […] was determined by staining with propidium iodine and FACS analyses (49).

For the next experiment, the system named is WD/DDLS cells. The note with it: Ambrosini et al., 2007, Singer et al.; cited from earlier work.
In experiment [2] the test system is MDM2 and p21 in LS8817, LS0082, LS8107 and LS7785-1 cells. The experiment can be described thus: p53 targets by immunoblot after nutlin-3a. It counts as cell-based, human. The note with it: forty-eight hours; all of the cell lines. The protocol: The indicated cell lines were treated with nutlin-3a or vehicle control and extracts were prepared for immunoblotting (A) or annexin V staining (B) forty-eight hours after treatment. Mean percentage of annexin V+/7-AAD− cells was calculated from three or more independent experiments. Error bars represent standard deviation (*p<0.05).
A general note: In western blotting, separated proteins are transferred to a membrane and probed.

In the case of `CC(C)C[C@@H](C=O)NC(=O)[C@H](CC(C)C)NC(=O)[C@H](CC(C)C)NC(=O)OCc1ccccc1` [MG132] (Cbz-Leu-Leu-Leu-aldehyde), in experiment [1], the “MDM2 level after addition of MG132” value is listed as “re-accumulation”.
Regarding `COc1cccc2c1C(=O)c1c(O)c3c(c(O)c1C2=O)C[C@@](O)(C(=O)CO)C[C@@H]3O[C@H]1C[C@H](N)[C@H](O)[C@H](C)O1` [doxorubicin], in the experiment with LS8817 cells, the MDM2 levels entry is “without a reduction”, the p53 result was “accumulation” and the senescence result is given as “entry of the LS8817 cells into senescence”.
In the case of `COc1ccc(C2=N[C@@H](c3ccc(Cl)cc3)[C@@H](c3ccc(Cl)cc3)N2C(=O)N2CCNC(=O)C2)c(OC(C)C)c1` [nutlin-3a], in the experiment on WD/DDLS cell lines, the “percentage of annexin V stained apoptotic cells” value was “increased”. The “cell response to nutlin-3a” value in the experiment on WD/DDLS cells is “growth arrest, p53 accumulation and apoptosis”. For the same compound, in experiment [2], the “p53 targets, MDM2 and p21” value is “increased”.
